{"source": "patent US20050191710A1", "about": "“Method for labeling a membrane-localized protein” (priority 2004, published 2005)", "key": {"[1]": {"test_system": "CFTR", "test": "cAMP-stimulated iodide efflux from stably transfected cells", "type": "cell-based, baby hamster kidney (BHK) cells", "details": "for peak iodide efflux: compared to wild-type CFTR", "excerpt": "Since CFTR functions as a chloride channel, responsiveness of the tagged channels to PKA was examined by comparing cAMP-stimulated iodide efflux from cells stably transfected with 1) wild-type CFTR, 2) CFTR with a polyhistidine tag, 3) wild-type CFTR bearing both polyhistidine and biotinylation tags or 4) a ΔF508 CFTR construct that was identical to 3) except for deletion of phenylalanine 508. […] Therefore, similar to epitope-tagging of the fourth extracellular loop (Benharouga, et al. (2003) J. Biol. Chem. 278:22079-22089; Schultz, et al. (1997) Am. J. Physiol. Cell Physiol. 273:C2080-C2089), iodide efflux responses to PKA were preserved after insertion of a biotinylation target sequence.\nIodide effluxes were measured using standard methods (Cormet-Boyaka, et al. (2002) Proc. Natl. Acad. Sci. USA 99:12477-12482; Cormet-Boyaka, et al. (2002) Proc. Natl. Acad. Sci. USA 99:12477-12482). Briefly, cells were incubated with iodide loading buffer (136 mM NaI, 3 mM KNO3, 2 mM Ca(NO3)2, 11 mM glucose and 20 mM HEPES, pH 7.4) for 1 hour at room temperature. Extracellular NaI was removed by rinsing with iodide-free efflux buffer (same as loading buffer except NaNO3 replaced NaI). Samples were collected by removing the efflux buffer at 1 minute intervals and replacing it with fresh solution. The first three samples established the baseline efflux rate, then cpt-cAMP was added and samples were collected at 1 minute intervals in the continuous presence of cpt-cAMP for 15 minutes. Iodide was measured using an iodide sensitive electrode (Orion Research, Inc., Boston, Mass., USA) and converted to nmoles released/minutes."}, "[2]": {"target": "T1, BirA (Escherichia coli, UniProt P06709)", "T1 sequence (P06709 whole entry)": "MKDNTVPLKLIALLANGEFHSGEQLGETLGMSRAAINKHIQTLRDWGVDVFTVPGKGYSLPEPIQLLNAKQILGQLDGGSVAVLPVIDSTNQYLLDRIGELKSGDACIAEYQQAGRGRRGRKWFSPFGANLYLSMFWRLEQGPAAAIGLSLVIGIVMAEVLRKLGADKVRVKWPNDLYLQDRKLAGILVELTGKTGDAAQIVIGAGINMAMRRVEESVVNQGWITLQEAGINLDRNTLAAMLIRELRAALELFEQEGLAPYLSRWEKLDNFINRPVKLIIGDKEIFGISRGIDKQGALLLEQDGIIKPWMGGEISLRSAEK", "details": "read-out: equilibrium dissociation constant; cited from earlier work"}, "[3]": {"target": "T1, BirA", "details": "estimated from initial rate of biotinyl-5′-AMP synthesis; read-out: KM for ATP; cited from earlier work"}}}
{"compound": "ΔF508CFTR-biotintag: ΔF508 CFTR construct with biotinylation tag, deletion of phenylalanine 508 (disease mutation)", "values": [{"measurement": "cAMP-stimulated iodide efflux", "setting": "[1]", "result": "not detected"}]}
{"compound": "O=C(O)CCCC[C@@H]1SC[C@@H]2NC(=O)N[C@@H]21", "note": "[biotin]", "values": [{"measurement": "Kd", "setting": "[2]", "result": "10 to 100", "unit": "nM"}]}
{"compound": "CFTR with a polyhistidine tag: CFTR with glycine and ten histidines added to the C-terminus [reference compound]", "values": [{"measurement": "peak iodide efflux", "setting": "[1]; cAMP-stimulated", "result": "not diminished"}]}
{"compound": "wild-type CFTR bearing both polyhistidine and biotinylation tags: CFTR-biotintag with ten histidines at the C-terminus for purification on nickel-NTA beads", "values": [{"measurement": "delay of iodide efflux compared to wild-type CFTR", "setting": "[1]; cAMP-stimulated", "result": "~1", "unit": "min"}, {"measurement": "peak iodide efflux", "setting": "[1]; cAMP-stimulated", "result": "not diminished"}]}
{"compound": "Nc1ncnc2c1ncn2[C@@H]1O[C@H](COP(=O)(O)OP(=O)(O)OP(=O)(O)O)[C@@H](O)[C@H]1O", "note": "[ATP]", "values": [{"measurement": "Km", "setting": "[3]", "result": 3000, "unit": "µM"}]}
